# Assay results reported in patent US10501412B2, “Conjugates of cell binding molecules with cytotoxic agents” (HANGZHOU DAC BIOTECH CO., LTD., priority 2012, dated 2019).
# Details: generated by hydrolysis of Phe and Tyr in the animal blood circulation
substance,measurement,value
Mep-Ile-Tuv [Mep-Ile-Tuv moiety],fold less potency than tubulysin A and D,over 200 fold
